Laboratory results as given in US6809064B2, “Synergistic herbicidal compositions comprising herbicides from the benzoylcyclohexanedione group for use in rice crops” (Aventis CropScience GmbH, priority 2001, dated 2004).
Like-named read-outs stand apart in the source and are kept apart here.

What was measured:
SCPJU = test: Post-emergence herbicidal action, submerged application; format: in vivo, Scirpus juncoides; settings: for pest or weed control at 15 g/ha: dosage 15 g ai/ha
Procedure: (§1) The herbicidal efficacy of the active ingredients or active ingredient mixtures was scored visually by comparing the treated variants with untreated control variants. The damage and development of all aerial plant parts was recorded. Scoring was done on a percentage scale (100% action=all plants dead; 50% action=50% of the plants and green plant parts dead; 0% action=no discernible action=like untreated control plot).
(§2) Seeds or root segments of monocotyledonous and dicotyledonous weeds are placed in sandy loam in pots, covered with soil and grown in the greenhouse under good growth conditions (temperature, atmospheric humidity, water supply). Approximately three weeks after planting, the experimental plants are treated with the compositions according to the invention. In the case of spray application, the compositions according to the invention, which are formulated as wettable powders or emulsion concentrates, are sprayed onto the green plant parts in various dosages with an application rate of 600 to 800 l of water per ha (converted). Immediately to a few days after the application, the test containers are flooded with water up to a depth of 30 mm above the soil surface. In the case of submerged application, in contrast, the soil in the closed test container is already covered with paddy water up to a depth of 30 mm at the time of application. Here, the formulated active ingredients are added directly to the paddy water. After the experimental plants have remained in the greenhouse under optimal growth conditions for a further 3 to 4 weeks, the effect of the preparations is scored visually in comparison with untreated controls. The compositions according to the invention also have an outstanding herbicidal action against a broad spectrum of economically important grass weeds and broad-leaved weeds when applied post-emergence. Frequently, effects of the combinations according to the invention are observed which exceed the formal total of the effects when the herbicides are applied individually. When using suitable low dosages, the values observed in the experiments show an effect of the combinations which exceed the expected values calculated using Colby's formula.
(§3) When applying the combinations according to the invention, herbicidal effects are frequently observed on a harmful plant species which exceed the formal total of the effects of the herbicides present when these are applied by themselves. Alternatively, it is observed in some cases that a lower application rate is required for the herbicide combination in order to achieve the same effect on a harmful plant species in comparison with the individual products.
(§4) A, B=action of component A or B in percent at a dosage of a and b grams of ai/ha, respectively, and
(§5) E=expected value in % at a dosage of a+b grams of ai/ha.
(§6) Examples B.I to B.XVII have been conducted according to method B.2 (post-emergence herbicidal action) as mentioned above, wherein spray application has been applied in case of examples B.I to B.V. Submerged application has been applied in case of examples B.VI bis B.XVII.

SAGPY = test: as above; format: in vivo, Sagittaria pygmaea
Procedure: as §1, §2, §3, §4, §5, §6

CYPES = test: Post-emergence herbicidal action, spray application; format: in vivo; settings: Example B.IV, dosage 20 g ai/ha
Procedure: as §1
(§7) Seeds or root segments of monocotyledonous and dicotyledonous weeds are placed in sandy loam in pots, covered with soil and grown in the greenhouse under good growth conditions (temperature, atmospheric humidity, water supply). Approximately three weeks after planting, the experimental plants are treated with the compositions according to the invention. […] After the experimental plants have remained in the greenhouse under optimal growth conditions for a further 3 to 4 weeks, the effect of the preparations is scored visually in comparison with untreated controls. […] When using suitable low dosages, the values observed in the experiments show an effect of the combinations which exceed the expected values calculated using Colby's formula. […]

ECHCG = test: as above; format: in vivo, Echinochloa crus galli
Procedure: as §1, §2, §3
A, B=action of component A or B in percent at a dosage of a and b grams of ai/ha, respectively, and […]

CYPSE = test: Post-emergence herbicidal action, submerged application; format: in vivo, Cyperus serotinus; settings: Example B.X, dosage 750 g ai/ha
Procedure: as §1, §7

CHEAL = test: Post-emergence herbicidal action, spray application; format: in vivo, Chenopodium album; settings: Example B.I, dosage 10 g ai/ha
Procedure: as §1, §7

ECHOR = test: Post-emergence herbicidal action, submerged application; format: in vivo; settings: Example B.XIV, dosage 18.75 g ai/ha
Procedure: as §1, §7

SEBEX = test: Post-emergence herbicidal action, spray application; format: in vivo, Sesbania exaltata
Procedure: as §1
as §2, with “Frequently, effects of the combinations according to the invention are observed which exceed the formal total of the effects when the herbicides are applied individually.” left out, “formula. […]” for “formula.”

[1] = Schoenoplectiella juncoides, read-out: SCPJU found
[2] = Sagittaria pygmaea, read-out: SAGPY found
[3] = Example B.III, dosage 100 g ai/ha
[4] = Example B.VI, submerged application, dosage 75 g ai/ha
[5] = Example B.V, dosage 500 g ai/ha
[6] = Example B.II, dosage 100 g ai/ha

CCN(CC)C(=O)n1cnc(S(=O)(=O)c2c(C)cc(C)cc2C)n1 [Compound B5.1, cafenstrole]
pest or weed control at 75 g/ha (SCPJU; [1]): 0%
pest or weed control at 150 g/ha (SAGPY; [2]): 0%

COc1cc(OC)nc(Sc2cccc3c2C(=O)OC3C)n1 (stereo not drawn) [Compound B12.1, pyriftalide]
pest or weed control at 100 g/ha (SCPJU; Schoenoplectiella juncoides, Example B.XVI, submerged application, dosage 100 g ai/ha, read-out: SCPJU found): 0%
pest or weed control at 50 g/ha (SAGPY; Sagittaria pygmaea, Example B.XVI, submerged application, dosage 50 g ai/ha, read-out: SAGPY found): 0%

CCCC(=NOCC(C)Oc1ccc(Cl)cc1)C1=C(O)CC(C2CCCSC2)CC1=O (stereo not drawn) [Compound B13.1, profoxydim]
CYPES found (CYPES): 0%
ECHCG found (ECHCG; Example B.IV, dosage 20 g ai/ha): 30%

Cc1ccc(NC(=O)NC(C)(C)c2ccccc2)cc1 [Compound B5.2, daimuron]
pest or weed control at 375 g/ha (SAGPY; Sagittaria pygmaea, Example B.X, submerged application, dosage 375 g ai/ha, read-out: SAGPY found): 0%
CYPSE found (CYPSE): 0%

CCOC(=O)c1cnn(C)c1S(=O)(=O)NC(=O)Nc1nc(OC)cc(OC)n1 [Compound B6.2, pyrazosulfuron-ethyl]
CHEAL found (CHEAL): 10%

CCC1(CC2(c3cccc(Cl)c3)CO2)C(=O)c2ccccc2C1=O (stereo not drawn) [Compound B10.1, indanofan]
pest or weed control at 37.5 g/ha (SCPJU; Schoenoplectiella juncoides, Example B.XIV, submerged application, dosage 37.5 g ai/ha, read-out: SCPJU found): 20%
ECHOR found (ECHOR): 50%

CCOCOc1ccc(C(=O)Nc2cccc(Cl)c2Cl)cc1 [Compound B9.1, etobenzamide]
SCPJU found (SCPJU; Example B.XII, submerged application, dosage 375 g ai/ha): 0%
SAGPY found (SAGPY; Example B.XII, submerged application, dosage 187 g ai/ha): 0%

Cc1ccccc1CO[C@@H]1C[C@@]2(C(C)C)CC[C@]1(C)O2 (racemic) [Compound B7.1, cinmethylin]
pest or weed control at 15 g/ha (SCPJU; Schoenoplectiella juncoides, Example B.IX, submerged application, read-out: SCPJU found): 0%
pest or weed control at 30 g/ha (SAGPY; Sagittaria pygmaea, Example B.IX, submerged application, dosage 30 g ai/ha, read-out: SAGPY found): 0%

CCNc1nc(NC(C)C(C)C)nc(SC)n1 (stereo not drawn) [Compound B8.1, dimethametryn]
SEBEX found (SEBEX; [3]): 50%
ECHCG found (ECHCG; [3]): 25%

CCN(C(=O)n1nnn(-c2ccccc2Cl)c1=O)C1CCCCC1 [Compound B5.4, fentrazamide]
pest or weed control at 75 g/ha (SCPJU; Schoenoplectiella juncoides, Example B.XIII, submerged application, dosage 75 g ai/ha, read-out: SCPJU found): 0%
pest or weed control at 37.5 g/ha (SAGPY; Sagittaria pygmaea, Example B.XIII, submerged application, dosage 37.5 g ai/ha, read-out: SAGPY found): 0%

CO/N=C(/C)c1cccc(Oc2nc(OC)cc(OC)n2)c1C(=O)OC [Compound B6.3, pyriminobac-methyl]
pest or weed control at 7.5 g/ha (SCPJU; [1]): 0%
pest or weed control at 7.5 g/ha (SAGPY; [2]): 0%

CS(=O)(=O)c1ccc(C(=O)C2=C(Sc3ccccc3)C3CCC(C3)C2=O)c(Cl)c1 (stereo not drawn) [Compound B2.1, benzobicyclon]
SCPJU found (SCPJU; [4]): 30%
SAGPY found (SAGPY; [4]): 0%

CSC(=O)c1c(C(F)F)nc(C(F)(F)F)c(C(=O)SC)c1CC(C)C [Compound B5.3, dithiopyr]
pest or weed control at 15 g/ha (SCPJU; Schoenoplectiella juncoides, Example B.XI, submerged application, read-out: SCPJU found): 0%
pest or weed control at 15 g/ha (SAGPY; Sagittaria pygmaea, Example B.XI, submerged application, dosage 15 g ai/ha, read-out: SAGPY found): 0%

CC(C)Oc1cc(-n2nc(C(C)(C)C)oc2=O)c(Cl)cc1Cl [Compound B4.2, oxadiazon]
pest or weed control at 22 g/ha (SCPJU; Schoenoplectiella juncoides, Example B.XV, submerged application, dosage 22 g ai/ha, read-out: SCPJU found): 10%
pest or weed control at 175 g/ha (SAGPY; Sagittaria pygmaea, Example B.XV, submerged application, dosage 175 g ai/ha, read-out: SAGPY found): 0%

NC1=C(Cl)C(=O)c2ccccc2C1=O [Compound B14.1, quinoclamine]
SEBEX found (SEBEX; [5]): 0%
ECHCG found (ECHCG; [5]): 0%

Cc1ccc(C(=O)COc2c(C(=O)c3ccc(Cl)c(C)c3Cl)c(C)nn2C)cc1 [Compound B3.1, benzofenap]
pest or weed control at 300 g/ha (SCPJU; Schoenoplectiella juncoides, Example B.VII, submerged application, dosage 300 g ai/ha, read-out: SCPJU found): 0%
pest or weed control at 75 g/ha (SAGPY; Sagittaria pygmaea, Example B.VII, submerged application, dosage 75 g ai/ha, read-out: SAGPY found): 0%

O=C(O)COc1ccc(Cl)cc1Cl [Compound B1.1, 2,4-D]
SEBEX found (SEBEX; [6]): 45%
ECHCG found (ECHCG; [6]): 50%
